pIC50: −log10 of the molar value.
Test system: 966289-007-R4-J1-PDC complex spheroid viability
Assay: Anticancer human tumor 966289-007-R4-J1-PDC patient-derived pancreatic adenocarcinoma cell line growth inhibition [GQUAD]
Conditions: for pIC50: curve of first compound; for viability, T/C: stronger effect = lower value; active means viability on the fitted dose curve at most 10% of control; inactive means the rest
Text: DNA G-quadruplex Stabilizer Agents in Combinations in Complex Spheroids
A high-throughput screen of multi-cell type tumor spheroids was designed to identify active combinations of DNA G-quadruplex stabilizer agents and targeted small molecules. Complex spheroids include a stromal component modeled by human endothelial cells (HUVEC) and fibroblasts modeled by human mesenchymal stem cells (MSCs). The concentration ranges selected for each drug and investigational agent were based upon clinically achievable concentrations if the clinical Cmax of the agent was known.
Compounds. The drugs and investigational agents: pidnarulex (CX-5461; NSC782164), APTO-253 (NSC789042), BRACO-19 (NSC847499), peposertib (NSC802822), ceralasertib (NSC780249), elimusertib (NSC800525), camonsertib (NSC841442), AZD-1390 (NSC803789), olaparib (NSC753686), talazoparib (NSC767125), ART-558 (NSC835418), sotorasib (NSC818433), MRTX-1133 (NSC836407), SN-38 (NSC673596), topotecan (NSC609699), etoposide (NSC141540), doxorubicin (NSC123127), gemcitabine (NSC613327), 5-fluorouracil (NSC19893), paclitaxel (NSC125973), vemurafenib (NSC761431), panobinostat (NSC761190), R-306465 (JNJ-16241199; NSC773264), adavosertib (NSC754352), TP-3654 (NSC805149), carboplatin (NSC241240), KSQ-4279 (NSC840948), and staurosporine (NSC755774) were obtained from the National Cancer Institute (NCI) Developmental Therapeutics Program Chemical Repository (34). The FDA-approved anticancer drug set is available from the NCI Developmental Therapeutics Program. […] The stock solutions were prepared in dimethyl sulfoxide (DMSO, Sigma-Aldrich, St. Louis, MO, cat. D2650) at 800-fold the tested concentration and stored at -70 degrees C prior to their use. All drugs and investigational agents were tested over a range starting from a high concentration at or near the clinical Cmax and decreasing in half-log increments. If the clinical Cmax for an agent had not been determined, the highest concentration tested was 10 microM.
2.3 Cell Culture. All cells were maintained in an incubator at 37 degrees C and 5% CO2 with 95% humidity. The PDC lines were cultured according to standard operating procedures established by the NCI PDMR. All PDCs were thawed and cultured in Matrigel-coated flasks prepared with a working solution of 1X Ham's F-12 nutrient mix, without supplementation (Invitrogen, cat. 11765054), 100 U/mL penicillin-streptomycin (Invitrogen, cat. 15140122), and 2.5% Matrigel (Corning Inc., cat. 354248) for the first three passages. The 857933-349-R-J2-PDC line was cultured in 6C/Colon 1B media, which includes advanced DMEM/F-12 (Thermo Fisher Scientific, cat. 12634028), 10 mM HEPES (Thermo Fisher Scientific, cat. 15630080), 1X GlutaMAX supplement (Thermo Fisher Scientific, cat. 35050061), 0.1 mg/mL primocin (InvivoGen, cat. ant-pm-2), 10% defined fetal bovine serum, heat inactivated (HyClone Laboratories Inc., cat. SH30070.03HI), 50% L-WRN conditioned media (ATCC, cat. CRL-3276), 1.25 mM N-Acetyl-L-cysteine (Sigma-Aldrich, cat. A9165), 10 mM nicotinamide (Sigma-Aldrich, cat. N0636), 1X B-27 supplement (Thermo Fisher Scientific, cat. 17504044), 1X N-2 supplement (Thermo Fisher Scientific, cat. 17502048), 10 microM Y-27632 dihydrochloride (Tocris Bioscience, cat. 1254), and 50 ng/mL human EGF recombinant protein (Thermo Fisher Scientific, cat. PHG0311). The 485176-168-R4-J1-PDC line was cultured in Panc media, which includes all 6C/Colon 1B media components plus 100 ng/mL human FGF-10 (Thermo Fisher Scientific, cat. 100-26), 500 nM SB-431542 (Selleckchem, cat. S1067), and gastrin (Tocris, cat. 3006).
[…]

[1] = second compound 0.0316 µM, first compound 0.0316 µM
[2] = second compound 0.0316 µM, first compound 0.1 µM
[3] = second compound 0.0316 µM, first compound 0.316 µM
[4] = second compound 0.0316 µM, first compound 1 µM
[5] = second compound 0.0316 µM, first compound 3.16 µM
[6] = second compound 0.0316 µM, first compound 10 µM
[7] = second compound 0.1 µM, first compound 0.0316 µM
[8] = second compound 0.1 µM, first compound 0.1 µM
[9] = second compound 0.1 µM, first compound 0.316 µM
[10] = second compound 0.1 µM, first compound 1 µM
[11] = second compound 0.1 µM, first compound 3.16 µM
[12] = second compound 0.1 µM, first compound 10 µM
[13] = second compound 0.316 µM, first compound 0.0316 µM
[14] = second compound 0.316 µM, first compound 0.1 µM
[15] = second compound 0.316 µM, first compound 0.316 µM
[16] = second compound 0.316 µM, first compound 1 µM
[17] = second compound 0.316 µM, first compound 3.16 µM
[18] = second compound 0.316 µM, first compound 10 µM
[19] = second compound 1 µM, first compound 0.0316 µM
[20] = second compound 1 µM, first compound 0.1 µM
[21] = second compound 1 µM, first compound 0.316 µM
[22] = second compound 1 µM, first compound 1 µM
[23] = second compound 1 µM, first compound 3.16 µM
[24] = second compound 1 µM, first compound 10 µM
[25] = second compound 3.16 µM, first compound 0.0316 µM
[26] = second compound 3.16 µM, first compound 0.1 µM
[27] = second compound 3.16 µM, first compound 0.316 µM
[28] = second compound 3.16 µM, first compound 1 µM
[29] = second compound 3.16 µM, first compound 3.16 µM
[30] = second compound 3.16 µM, first compound 10 µM
[31] = second compound 10 µM, first compound 0.0316 µM
[32] = second compound 10 µM, first compound 0.1 µM
[33] = second compound 10 µM, first compound 0.316 µM
[34] = second compound 10 µM, first compound 1 µM
[35] = second compound 10 µM, first compound 3.16 µM
[36] = second compound 10 µM, first compound 10 µM
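Further: spheroids exposed to the agents for seven days before readout.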
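Wherever viability, T/C is given: percent viability relative to DMSO vehicle control wells taken as 100%.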

COc1cc(C2c3cc4c(cc3C(OC3OC5COC(C)OC5C(O)C3O)C3COC(=O)C23)OCO4)cc(OC)c1O (stereo unspecified) + Cc1[nH]c2ccc(F)cc2c1-c1nc2c3cccnc3c3ncccc3c2[nH]1
6.60: pIC50 (second compound 3.16 µM)
6.49: pIC50 (second compound 0.0316 µM)
inactive: viability, T/C [1] 107% | viability, T/C [2] 104% | viability, T/C [3] 50.5% | viability, T/C [7] 107% | viability, T/C [8] 105% | viability, T/C [9] 41.7% | viability, T/C [13] 102% | viability, T/C [14] 112% | viability, T/C [15] 49.2% | viability, T/C [19] 99.4% | viability, T/C [20] 110% | viability, T/C [21] 48% | viability, T/C [25] 108% | viability, T/C [26] 99.6% | viability, T/C [27] 37.6% | viability, T/C [31] 101% | viability, T/C [32] 97.2% | viability, T/C [33] 28.1%
6.66: pIC50 (second compound 10 µM)
active: viability, T/C [4] 4.72% | viability, T/C [5] 2.07% | viability, T/C [6] 0.7% | viability, T/C [10] 7.49% | viability, T/C [11] 1.48% | viability, T/C [12] 0.65% | viability, T/C [16] 7.18% | viability, T/C [17] 1.57% | viability, T/C [18] 0.55% | viability, T/C [22] 7.65% | viability, T/C [23] 1.61% | viability, T/C [24] 0.65% | viability, T/C [28] 6.91% | viability, T/C [29] 2.31% | viability, T/C [30] 0.77% | viability, T/C [34] 3.87% | viability, T/C [35] 1.57% | viability, T/C [36] 0.58%
6.56: pIC50 (second compound 0.1 µM)
6.52: pIC50 (second compound 1 µM)
6.51: pIC50 (second compound 0.316 µM)

COc1cccc2c1C(=O)c1c(O)c3c(c(O)c1C2=O)CC(O)(C(=O)CO)CC3OC1CC(N)C(O)C(C)O1 (stereo unspecified) + Cc1[nH]c2ccc(F)cc2c1-c1nc2c3cccnc3c3ncccc3c2[nH]1
7.28: pIC50 (second compound 10 µM)
7.25: pIC50 (second compound 3.16 µM)
active: viability, T/C [3] 1.91% | viability, T/C [4] 0.7% | viability, T/C [5] 0.21% | viability, T/C [6] 0.6% | viability, T/C [9] 2.16% | viability, T/C [10] 0.91% | viability, T/C [11] 0.22% | viability, T/C [12] 0.26% | viability, T/C [15] 2.39% | viability, T/C [16] 0.78% | viability, T/C [17] 0.23% | viability, T/C [18] 0.33% | viability, T/C [21] 2.52% | viability, T/C [22] 0.71% | viability, T/C [23] 0.32% | viability, T/C [24] 0.5% | viability, T/C [27] 2.39% | viability, T/C [28] 0.86% | viability, T/C [29] 0.29% | viability, T/C [30] 0.56% | viability, T/C [33] 1.72% | viability, T/C [34] 0.61% | viability, T/C [35] 0.4% | viability, T/C [36] 0.57%
inactive: viability, T/C [1] 114% | viability, T/C [2] 16.4% | viability, T/C [7] 104% | viability, T/C [8] 15.1% | viability, T/C [13] 100% | viability, T/C [14] 12.6% | viability, T/C [19] 97.1% | viability, T/C [20] 14.7% | viability, T/C [25] 87.9% | viability, T/C [26] 12.9% | viability, T/C [31] 79.9% | viability, T/C [32] 10.9%
7.21: pIC50 (second compound 0.316 µM) | pIC50 (second compound 1 µM)
7.20: pIC50 (second compound 0.1 µM)
7.17: pIC50 (second compound 0.0316 µM)

CC(C)n1c(=O)n(C)c2cnc3cc(F)c(-c4ccc(OCCCN5CCCCC5)nc4)cc3c21 + CN(C)c1ccc(Nc2c3ccc(NC(=O)CCN4CCCC4)cc3nc3cc(NC(=O)CCN4CCCC4)ccc23)cc1
< 5.00: pIC50 (second compound 0.0316 µM) | pIC50 (second compound 0.1 µM) | pIC50 (second compound 0.316 µM) | pIC50 (second compound 1 µM)
active: viability, T/C [35] 5.65% | viability, T/C [36] 1.75%
6.57: pIC50 (second compound 10 µM)
5.25: pIC50 (second compound 3.16 µM)
inactive: viability, T/C [1] 108% | viability, T/C [2] 105% | viability, T/C [3] 108% | viability, T/C [4] 106% | viability, T/C [5] 108% | viability, T/C [6] 87.5% | viability, T/C [7] 103% | viability, T/C [8] 102% | viability, T/C [9] 106% | viability, T/C [10] 106% | viability, T/C [11] 107% | viability, T/C [12] 88% | viability, T/C [13] 98.1% | viability, T/C [14] 103% | viability, T/C [15] 107% | viability, T/C [16] 109% | viability, T/C [17] 107% | viability, T/C [18] 86.6% | viability, T/C [19] 103% | viability, T/C [20] 99.5% | viability, T/C [21] 107% | viability, T/C [22] 108% | viability, T/C [23] 103% | viability, T/C [24] 70.5% | viability, T/C [25] 102% | viability, T/C [26] 104% | viability, T/C [27] 107% | viability, T/C [28] 102% | viability, T/C [29] 87.1% | viability, T/C [30] 14.1% | viability, T/C [31] 98.7% | viability, T/C [32] 79% | viability, T/C [33] 46% | viability, T/C [34] 16%
